Results taken from publication PMC5678437, “A new antagonist for CCR4 attenuates allergic lung inflammation in a mouse model of asthma” (Scientific Reports, 2017).
Like-named read-outs stand apart in the source and are kept apart here.

Tests used:
[1] = system: OVA-induced asthmatic mice; experiment: Lung histology (H&E) inflammation score in OVA-induced asthmatic mice; type: in vivo, BALB/c mice; conditions: 5 mg inhaled aerosol; vs OVA mice treated with vehicle
Method: (§1) Male BALB/c 6 week old mice were purchased from the Experimental Animal Center of Zhejiang University. All mice were raised in a specific pathogen-free animal facility. All animal experiments were carried out according to the guidelines for the care and use of laboratory animals and were approved by the ethics committee of Zhejiang University and Peking University, China.
(§2) Mice were sensitized and challenged with chicken egg OVA (sigma-Aldrich, St Louis, MO, USA) as described in details previously. Briefly, after sensitized by intraperitoneal injection of 100 μl (80 μg) OVA in 100 μl alum (Pierce, Rockford, IL, USA) on days 0 and 14, mice were exposure to 1% OVA aerosols for 40 min on days 24–26. Control mice were injected intraperitoneally with saline and exposed to saline aerosols.
(§3) Compound 8a was dissolved in saline with DMSO (0.5%). Half an hour before each OVA challenge, the groups of mice treated with various doses of compound 8a (0.2, 1, 5 mg) inhaled aerosolized compound 8a for 45 min on days 24–26. Compound 8a aerosols were produced by using a Plexiglas chamber and ultrasonic nebulizer. […]
(§4) After sacrificed, the lungs were fixed in formalin overnight. […] Inflammation was scored according to published guidelines. And PAS-stained goblet cells in airway epithelium were quantified as described previously.

[2] = system: OVA-induced asthmatic mice; experiment: Airway mucus production (PAS staining) in OVA-induced asthmatic mice; type: in vivo, BALB/c mice; conditions: compound 8a 0.2, 1, 5 mg; budesonide 5 mg; vs vehicle treated group
Method: as §1, §2, §3, §4

[3] = system: OVA-induced asthmatic mice; experiment: Airway hyperresponsiveness to aerosolized methacholine in OVA-induced asthmatic mice; type: in vivo, BALB/c mice; conditions: 5 mg inhaled aerosol, days 24-26; 24 h after final OVA challenge
Method: as §1, §2
(§5) Compound 8a was dissolved in saline with DMSO (0.5%). Half an hour before each OVA challenge, the groups of mice treated with various doses of compound 8a (0.2, 1, 5 mg) inhaled aerosolized compound 8a for 45 min on days 24–26. Compound 8a aerosols were produced by using a Plexiglas chamber and ultrasonic nebulizer. While the budesonide (BUD) group were administered with 5 mg budesonide, and the vehicle group were treated with compound-dissolved vehicle. The Saline was treated as the control.
Twenty-four hours after the last challenge, mice were anesthetized and tracheotomized with a cannula, then ventilated at a fixed breathing rate. Once being stabilized, mice were challenged via the airways with saline or increasing concentrations of Mch (1, 2, 4, 8, 16 mg/ml) by nebulization. Airway resistance was measured by FinePointe Series RC Sites (Buxco Research System). Changes in airway resistance were calculated for each Mch concentration.

[4] = system: OVA-induced asthmatic mice; experiment: BALF total cell and cell differential counts in OVA-induced asthmatic mice; type: in vivo, BALB/c mice
Method: as §1, §2, §5
Twenty-four hours after the last exposure, collection of BALF and cell count was performed as previously described. Briefly, lavage was performed by instilling 0.4 ml PBS into lungs and with drawn to collect the cells three times. Total BALF cells were counted. After be centrifuged, the remaining cells was spun onto glass slides, and stained with Wright–Giemsa stain. Differential counts were evaluated by counting 400 total cells.

[5] = system: IL-4; experiment: IL-4 in lung homogenate by ELISA in OVA-induced asthmatic mice; type: in vivo, BALB/c mice; conditions: 5 mg inhaled aerosol; after OVA challenge
Method: as §1, §2
Compound 8a was dissolved in saline with DMSO (0.5%). Half an hour before each OVA challenge, the groups of mice treated with various doses of compound 8a (0.2, 1, 5 mg) inhaled aerosolized compound 8a for 45 min on days 24–26. […]
Twenty-four hours after the last challenge, lungs were removed from control or asthmatic mice, and they were cut into pieces and homogenized in 500 μl PBS, centrifuged (2000 rpm, 10 min) and the supernatant collected. The concentration of IL-4 in lungs were determined by ELISA kit (Sensitivity: 2 pg/ml, R&D Systems, Minneap-olis, MN, USA) following the manufacturer’s protocol.

[6] = biological target: T1, CCR4 (Homo sapiens, UniProt P51679); experiment: Radio ligand competition binding assay on CCR4 cell membrane extract; conditions: HEK293 CCR4 cell membrane extract, 4 °C, 24 h
T1 construct: expressed in transfected cells; cell membrane extract
T1 sequence (P51679 1-360): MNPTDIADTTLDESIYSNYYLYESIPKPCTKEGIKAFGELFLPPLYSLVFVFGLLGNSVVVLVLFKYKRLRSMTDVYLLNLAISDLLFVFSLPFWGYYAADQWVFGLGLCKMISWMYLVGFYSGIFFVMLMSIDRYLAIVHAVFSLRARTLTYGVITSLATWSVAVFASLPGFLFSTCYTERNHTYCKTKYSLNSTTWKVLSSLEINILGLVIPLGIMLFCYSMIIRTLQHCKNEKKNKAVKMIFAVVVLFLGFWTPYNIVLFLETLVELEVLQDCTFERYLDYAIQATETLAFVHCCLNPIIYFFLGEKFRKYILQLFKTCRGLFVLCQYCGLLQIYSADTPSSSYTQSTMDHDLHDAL
Method: A HEK293 cell line stably expressing CCR4-enhanced green fluorescent protein was established. CCL22, CCL17 and C27 were labeled with [^125I]. For competition binding assays, equivalent quantities of cell membrane extract and [^125I]-CCL22, [^125I]-CCL17 and [^125I]-C27 were incubated with varying quantities of unlabeled compound 8a, compound 6b and compound 22. All reactions were incubated at 4 °C for 24 h. After the binding step, 25% polyethylene glycol (6000–8000) and 0.5% human g-globulin were added, and the mixture was incubated at room temperature for 15 min. Binding complexes were obtained by centrifuging the mixture at 3500 rpm for 20 min at 4 °C, and radioactivity was evaluated. Results were corrected for “blank” background radiation, defined as the radioactivity precipitated by polyethylene glycol–g-globulin from the same amount of radioactive ligand in binding buffer in the absence of cells.

[7] = 5 mg inhaled aerosol, compared with vehicle treated group
[8] = compound 8a 0.2, 1, 5 mg, budesonide 5 mg, inhaled aerosol

SMILES | peribronchial and perivascular inflammation (H&E histology) [1] | airway mucus production (PAS-stained cells) [2] | AHR to methacholine compared with asthmatic mice treated with vehicle [3] | absolute number of eosinophils in BALF [4, 7] | absolute number of lymphocytes in BALF [4, 7] | number of macrophages in BALF [4, 8] | number of neutrophils in BALF [4, 8] | expression of IL-4 in lungs (ELISA) [5] | IC50 ([6]; [125I]-C27, read-out: IC50, competitive binding with C27 to CCR4) [nM] | IC50 ([6]; [125I]-CCL17, read-out: IC50, competitive binding with CCL17 to CCR4) [nM] | IC50 ([6]; [125I]-CCL22, read-out: IC50, competitive binding with CCL22 to CCR4) [nM]
CCCC1O[C@@H]2C[C@H]3[C@@H]4CCC5=CC(=O)C=C[C@]5(C)[C@H]4[C@@H](O)C[C@]3(C)[C@]2(C(=O)CO)O1 (some centres unmarked) [budesonide, reference compound] | significantly attenuated | no effect | significantly lower | significantly decreased | significantly decreased | neither compound 8a nor budesonide affect | neither compound 8a nor budesonide affect | notably decreased | – | – | –
O=C([C@@H]1CSCCN1)N1CCN(c2nc(NCc3ccc(Cl)cc3Cl)c3cccnc3n2)CC1 [compound 6b, reference compound] | – | – | – | – | – | – | – | – | 489 | 104 | 360
